The values that follow come from patent publication US20240108590A1, “MAINTENANCE OF PROGRAMMED CHRONIC LIVER INJURY OF FAH GENE-DEFICIENT ANIMALS AND APPLICATION THEREOF IN PREPARATION OF HETEROLOGOUS LIVER MODELS” (Jiangsu University, priority 2020, published 2024).

For data set [1], the system named is hALB-positive hepatocytes. Description: Ki67 and hALB counterstaining of humanized livers. The class given is in vivo, rat. Conditions: NTBC^P, 7 months after transplantation. As to the method:
8. Immunofluorescence Staining • (1) Frozen sections (7 μm) were fixed in 4% PFA at room temperature for 10 minutes, or in methanol:acetone (1:1) at −30° C. for 30 minutes. • (2) Wash three times with 0.1% tween-PBS for 5 minutes each time. • (3) 10% goat or donkey serum was used for blocking for 60 minutes at room temperature. • (4) The primary antibody was used for incubation overnight at 4° C. • (5) Wash three times with 0.1% tween-PBS for 5 minutes each time. • (6) The secondary antibody conjugated with fluorescein was used for incubation at room temperature for 60 minutes. • (7) Wash three times with PBS for 5 minutes each time. • (8) DAPI was added and the sections were mounted by mounting medium and preserved.

For data set [2], the system named is primary human hepatocytes (PHH). Description: Repopulation rate of human hepatocytes in FRG rat livers (hNuclei immunostaining). The conditions noted are these: cyclic NTBC withdrawal/administration based on stepped withdrawal or body weight change, Fah-deficient rats, preliminary tests. The class given is in vivo. As to the method:
(§1) 12. Primary Hepatocyte Transplantation and Programmed NTBC Circulation • (1) Preparation before transplantation: Female FRG rats aged 7-8 weeks were intraperitoneally injected with 30 mg/kg Retrorsine 2 weeks before transplantation, and the concentration of NTBC in daily water was reduced from the normal maintenance concentration (5˜8 mg/L) to low concentration (0.2 mg/L) 1 week before transplantation. When the programmed NTBC cycle began, daily NTBC water was provided according to the method of 0.2 mg/L×7 days+5 mg/L×4 days (one cycle period of 11 days in total).
By immunostaining of the human-specific marker hNuclei, the repopulation rates of humanized rat livers can be calculated.

The test system of data set [3] is Afp. The experiment in a line: Quantitative qPCR of rat Afp gene in liver. The conditions noted are these: long-term programmed NTBC controlling (5+4 and 7+4). The class given is in vivo. As to the method: 1 μg RNA was reverse-transcribed into cDNA with Revert Aid RT kit according to manufacturer's instructions. According to the instructions of THUNDERBIRD SYBR qPCR Mix kit, cDNA was amplified and quantitatively analyzed on a quantitative PCR machine. Relative expression levels of target genes were based on ACTB as an internal reference. All data were repeated at least twice.

Data set [4] relates to rat livers. The experiment in a line: Sirius red staining, degree of liver fibrosis. The class given is in vivo. Conditions: programmed NTBC 7+4 compared with 5+4.
In data set [5] the test system is primary human hepatocytes (PHH). Description: Measurement of human albumin secretion in serum of PHH-transplanted rats (ELISA). The class given is in vivo, rat. As to the method:
100 μl of rat peripheral blood was collected through the tail vein, and after coagulation at room temperature, centrifuged at 400-g for 10 minutes, with the supernatant collected to obtain serum. The secretion level of human albumin was tested according to the instructions of the Human Albumin ELISA Quantitation Set kit. Serum was diluted 10-100000 times according to the actual concentration, so that the calculated value falls within the linear range of the standard curve to obtain accurate values.
as §1
(In general: An ELISA detects its analyte on a solid surface through an enzyme-linked reagent.)

The test system of data set [6] is Fah−/−Rag2−/−IL2rg−/− rats (FRG rats). Description: Survival of FRG rats under NTBC supply / programmed NTBC controlling. The class given is in vivo, rat. How it is done: Fah^−/−Rag2^−/−IL2rg^−/− rats (FRG rats) were housed in the Experimental Animal Center of Jiangsu University.
In the past feeding, FRG rats were daily supplied with 5-8 mg/L. In the present disclosure, the lowest dose of 5 mg/L NTBC was set as 100% NTBC; According to the weight (250-300 g) and the amount of water (25-50 ml/day) of rats, we can get: • 4% NTBC: equivalent to an average of 0.03 mg/kg/day; • 100% NTBC: equivalent to an average of 0.75 mg/kg/day. • (2) The transplantation was performed under an anesthesia machine using isoflurane. The rat was fixed with its abdomen facing upward, and cleaned and disinfected with iodine and alcohol after dehairing. • (3) By cutting the epidermis and muscle layers, the hepatic portal vein was found. 2×10^6 human primary hepatocytes (resuspended in 800 μl DMEM+10% FBS) were slowly injected with a 26G needle. After completing the injection and paused for a few seconds, the needle was then pulled out, with the needle port quickly pressed with a sterile cotton swab. • (4) After pressing for about 1 minute, with no blood effusion be observed, the muscle and epidermis were sutured and the wound was disinfected with alcohol cotton.
The optimal NTBC maintenance concentration was determined by comparing the survival rate of rats at different NTBC concentrations (0%, 1%, 4%, 10%, 100%).
Due to a long period of the humanization process and in order to further improve the long-term survival rate of rats under liver injury, the inventors designed a series of NTBC dosage regimens, which are called Programmed NTBC controlling scheme with a fixed cycle period (Programmed NTBC controlling, NTBC^P), including 5, 7 and 9 days of maintenance in 4% NTBC conditions, respectively, and 4 days of 100% NTBC recovery after that to alleviate accumulated liver injury (FIG. 2C).

In data set [7] the test system is FRG rats. Description: Liver function test (serum ALT and AST). The class given is in vivo, rat. How it is done:
The content of alanine aminotransferase (ALT) and aspartate aminotransferase (AST) in rat serum was measured according to the instructions of biochemical analyzer FUJI DRI-CHEM 7000V (Fujifilm. Japan).

The subject of data set [8] is humanized livers. The experiment in a line: Detection of humanized liver tumorigenesis (liver/bodyweight ratio, histology, AFP). Conditions: NTBC^P, 7 months after PHH transplantation.
Data set [9] concerns rat livers. The experiment in a line: Ki67 staining of rat livers with or without RS pretreatment. The class given is in vivo. Conditions: RS pretreatment vs none, after 2 months of programmed NTBC controlling. As to the method: 7. Immunohistochemistry • (1) The steps of dewaxing and rehydration are the same as above. • (2) Draw a circle around the sample with an ImmunoPen, drop a drop of 3% H2O2 for 15 minutes at room temperature for blocking endogenous peroxidase. • (3) Wash twice with PBS for 5 minutes each time. • (4) The blocking was carried with 1:20 Normal horse serum (dissolved in 1% BSA-PBS), incubated at room temperature for 20 minutes and washed for 3 times with PBS. • (5) The primary antibody was added, then the slices were put in a humid box, sealed and kept overnight at 4 degrees. • (6) Wash three times with PBS for 5 minutes each time. • (7) Secondary antibody was added and incubated at room temperature for 30 minutes. Wash three times with PBS for 5 minutes each time. • (8) AB solution in ABC kit (1:100 dilution of solution A and B) was added and incubated at room temperature for 30 minutes. Wash three times with PBS for 5 minutes each time. • (9) DAB coloration was carried and the time for coloration was adjusted according to different antibodies. • (10) Hematoxylin counterstaining for 20 minutes. Rinse with tap water for half an hour. • (11) Gradient dehydration: 50% ethanol, 70% ethanol, 80% ethanol, 90% ethanol, 100% ethanol, each for 2 minutes. • (12) After 15-30 minutes of xylene, sections were sealed with neutral resin and saved. […]

Data set [10] concerns the target T1, UGT2B7 (Homo sapiens, UniProt P16662).
T1 sequence (P16662 24-529): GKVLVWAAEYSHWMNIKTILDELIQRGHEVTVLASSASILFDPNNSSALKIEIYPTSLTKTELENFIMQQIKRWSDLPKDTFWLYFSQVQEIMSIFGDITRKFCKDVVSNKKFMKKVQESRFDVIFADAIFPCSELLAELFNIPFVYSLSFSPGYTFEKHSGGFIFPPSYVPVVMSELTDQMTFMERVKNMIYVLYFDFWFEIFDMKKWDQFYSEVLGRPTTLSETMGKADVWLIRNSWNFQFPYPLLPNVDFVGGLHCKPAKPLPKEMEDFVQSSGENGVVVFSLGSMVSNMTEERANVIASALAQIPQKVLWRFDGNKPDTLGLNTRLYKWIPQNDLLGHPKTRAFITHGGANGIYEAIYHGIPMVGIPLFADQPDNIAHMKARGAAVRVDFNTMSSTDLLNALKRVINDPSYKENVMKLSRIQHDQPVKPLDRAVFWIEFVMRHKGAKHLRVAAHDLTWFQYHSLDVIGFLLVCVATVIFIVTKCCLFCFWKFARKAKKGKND
Conditions: in human; cited from earlier work.

Data set [11] relates to UGT2B7. Conditions: in rats; cited from earlier work.
The subject of data set [12] is UGT2B7. The experiment in a line: UGT2B7 metabolism test in vivo. The conditions noted are these: rats with liver humanization vs control group, after oral AZT. On the set-up: species or system rat. How it is done: Liver humanized and […] FRG rats were orally administered 15 mg/kg zidovudine (Wako), and peripheral blood was collected after 0, 0.5, 1, 2, 4 and 8 hours. After 30 μl of plasma was diluted 2 fold with PBS, the contents of substrates and metabolites were detected by LC-MS/MS (Agilent 1200 HPLC and ABI 4000 mass-spectrometer).

On to `O=C1CCCC(=O)C1C(=O)c1ccc(C(F)(F)F)cc1[N+](=O)[O-]` [NTBC, 2-(2-nitro-4-trifluoromethylbenzoyl)-1.3 cyclohexanedione], for which the “proportion of Ki67-positive cells in hALB-positive hepatocytes” value in data set [1] was “more than 10%”. Besides, the “proportion of human hepatocyte repopulation” value in data set [2] is given as “less than 10%”. Moreover, the “expression of rat liver oncogene Afp” value in data set [3] is reported as “did not lead to abnormal upregulation”. For the same compound, in data set [4], the “degree of liver fibrosis” value is “more significant”. For the same compound, the “human albumin secretion level, mean” value in data set [5] (NTBC^P (7+4) with Retrorsine pretreatment, 7 months after PHH transplantation) came out at 1.7 ± 0.3 mg/mL. Further, the median survival time in [6] (NTBC concentration 4% of the maintenance dose (5 mg/L)) is given as 22 days. Also, the “rats surviving for at least 20 weeks” value in [6] (PHH-transplanted FRG rats, NTBC^P (7+4) with Retrorsine pretreatment) is 6/7. In addition, the “healthy survival of FRG rats” value in [6] (maintenance of 100% NTBC (5 mg/L in daily water)) is listed as “at least 1.5 years”. The “levels of ALT and AST” value was “higher levels of ALT and AST” in data set [7] (4% NTBC compared with 10% NTBC); “significantly higher” in data set [7] (programmed NTBC 7+4 compared with 5+4). Moreover, the “AFP gene and protein levels” value in data set [8] is on record as “no abnormal up-regulation”. Also, in data set [8], the “tumor formation (histology)” value is “no tumor formation”. In addition, the liver/bodyweight ratio result in [8] (vs nontransplanted controls) is listed as “not significantly increased”.

In the case of Retrorsine, in [9], the “proportion of Ki67 positive cells in rat livers” value is on record as “significantly lower”. In addition, the “human albumin secretion level” value in [5] (RS pretreatment vs none, within 4 weeks after PHH transplantation, NTBC 7+4) is “increased significantly”; in data set [5] (Retrorsine combined with partial hepatectomy, before development of NTBC^P scheme) it was 90 µg/mL.

Consider `Cc1cn([C@H]2C[C@H](N=[N+]=[N-])[C@@H](CO)O2)c(=O)[nH]c1=O` [AZT, zidovudine], for which, in data set [10], the “AZT metabolized to AZT-5′-glucuronide” value was 75%. Also, the “metabolic conversion rate of AZT to AZT-5′-glucuronide” value in data set [11] is given as 10%. Moreover, in [12], the “AZT-5′-glucuronide concentration” value is listed as “significantly higher”.
